Source: patent US11903955B2, “Methods of treating heart failure with reduced ejection fraction” (ASTRAZENECA AB, priority 2019, dated 2024)
Read-outs that look alike come from different tables or passages of the source.

Assays:
[1] = tested on: patients with chronic heart failure with reduced ejection fraction (LVEF ≤40%); conditions: for Any serious adverse event (including death), % of patients / Any serious adverse event (including death), No. of patients: safety population
Description: All the patients provided written informed consent and entered a 14-day enrollment period during which the trial inclusion and exclusion criteria were checked and baseline information gathered, including findings from clinical examination and laboratory measurements. […] Investigators used an interactive voice or web response system to obtain treatment assignment. Randomization was stratified based on a diagnosis of type 2 diabetes, defined as either an established diagnosis or a HbA1c level of 6.5% or greater (≥48 mmol/mol) confirmed in a central laboratory at screening. Patients were evaluated at 14 days and 60 days after randomization, with a focus on assessment of heart failure and volume status, adverse events, and checking renal function and potassium. Further study visits took place at 4 months and at 4-month intervals thereafter. The protocol required that study drug be permanently discontinued if pregnancy or diabetic ketoacidosis occurred.
KCCQ total symptom score was analyzed as a composite rank-based endpoint, incorporating patient vital status at 8 months along with change in score from baseline to 8 months in surviving patients, using the rank analysis of covariance method, with a corresponding win ratio used to estimate the magnitude of treatment effect.^17 The consistency of the treatment effect among 14 prespecified subgroups were assessed. The prespecified safety analyses included: serious adverse events; adverse events associated with discontinuation of study treatment; “adverse events of interest” i.e., volume depletion, renal events, major hypoglycemic events, bone fractures, diabetic ketoacidosis, amputations; Fournier's gangrene; and laboratory findings of note. […] Fisher's exact test was used to compare rates of adverse events. Analyses were performed using Stata, version 15 (College Station Tex., USA) and R version 3.5.1 (R Foundation for Statistical Computing, Vienna, Austria).

[2] = tested on: patients with chronic heart failure with reduced ejection fraction (LVEF ≤40%); conditions: for NT-proBNP, between-treatment difference: baseline to 8 months; for decrease in NT-proBNP: between baseline and 8 months
Description: Data from all randomly assigned patients were included in the analyses of the primary and secondary outcomes, according to the intention-to-treat principle. Baseline characteristics were summarized as means and standard deviations, medians and inter-quartile ranges, or percentages. Longitudinal measures, such as glycated hemoglobin level (HbA1c) and body weight, were analyzed using mixed model for repeated measurements, and the least-squares mean differences between treatment groups were estimated, together with 95% confidence intervals. Time-to-event data were evaluated with the use of Kaplan-Meier estimates and Cox proportional hazards models, stratified by diabetes status, with history of heart failure hospitalization and treatment as fixed-effect factors (for the renal endpoint, baseline eGFR was included instead of history of heart failure hospitalization); hazard ratios, 95% confidence intervals, and two-sided P values were calculated with the use of the Cox models.

patients with HFrEF = conditions: for Mild hyperkalemia (>5.5 mmol/L), HR (95% CI) / Moderate/Severe hyperkalemia (>6.0 mmol/L), HR (95% CI): dapagliflozin vs placebo; for Mild hyperkalemia (>5.5 mmol/L), No. events/patients: excluding baseline K+ > 5.5; for Moderate/Severe hyperkalemia (>6.0 mmol/L), No. events/patients: excluding baseline K+ > 6.0
Description: Hyperkalemia often limits the use of mineralocorticoid receptor antagonists (MRAs) in patients with heart failure and reduced ejection fraction (HFrEF), denying these patients a life-saving therapy.

[3] = tested on: patients with HFrEF without diabetes; conditions: individuals without diabetes at baseline
Description: FIG. 17 describes incidence of new onset T2D (HbA1c ≥6.5%) measured at 2 consecutive study visits post-randomization or investigator-reported new T2D vs placebo patients with previously undiagnosed diabetes, i.e., HbA1c ≥6.5%
Patients also had measurement of a glycated hemoglobin (HbA1c) level in a central laboratory at visit 1 and again at visit 2 (the randomization visit), which occurred 14 (±7) days later. For this prespecified subgroup analysis, patients were categorized as having diabetes if there was a history of diabetes or the glycated hemoglobin was at least 6.5% (≥48 mmol/mol) at both visits 1 and 2. Patients with a glycated hemoglobin level <5.7% ([…]) at both visits 1 and 2 were considered to have a normal glycated hemoglobin. For the purposes of this study, patients with a glycated hemoglobin ≥5.7% and <6.5% were considered to have pre-diabetes. Id.

[4] = baseline to 8 month, dapagliflozin vs placebo

CCOc1ccc(Cc2cc([C@@H]3O[C@H](CO)[C@@H](O)[C@H](O)[C@H]3O)ccc2Cl)cc1 [Dapagliflozin, dapagliflozin]
Any serious adverse event (including death), % of patients ([1]; No T2DM (N = 1295)): (34.6) %
Any serious adverse event (including death), No. of patients ([1]; No T2DM (N = 1295)): 448 patients
Any serious adverse event (including death), % of patients ([1]; T2DM (N = 1073)): (41.7) %
Any serious adverse event (including death), No. of patients ([1]; T2DM (N = 1073)): 447 patients
Adverse events of interest: Fournier gangrene, % of patients ([1]; human, in vivo): (0) %
Adverse events of interest: Fournier gangrene, No. of patients ([1]; human, in vivo): 0 patients
Adverse events of interest: Fracture, % of patients ([1]; human, in vivo): (2.1) %
Amputation, No. (%) ([1]; human, in vivo): 13 (0.5) No. (%)
Diabetic Ketoacidosis, No. (%) ([1]; human, in vivo): 3 (0.1) No. (%)
Discontinuation of study drug due to adverse event, No. (%) ([1]; human, in vivo): 111 (4.7) No. (%)
Fournier gangrene, No. (%) ([1]; human, in vivo): 0 (0) No. (%)
Fracture, No. (%) ([1]; human, in vivo): 49 (2.1) No. (%)
Major hypoglycemia, No. (%) ([1]; human, in vivo): 4 (0.2) No. (%)
Serious adverse events related to volume depletion, patients (%) ([1]; human, in vivo): 29 dapagliflozin treated patients (1.2%) patients (%)
Serious renal adverse events, patients (%) ([1]; human, in vivo): 38 dapagliflozin treated patients (1.6%) patients (%)
Fournier gangrene, No. (%) ([1]; in vivo): No case
amputation, cases ([1]; in vivo): twelve
amputation, patients ([1]; in vivo): one
Any serious adverse event (including death), No. (%) ([1]; safety population n = 2368): 895 (37.8) No. (%)
Change in systolic BP ([2]; baseline to 8 month (Visit 6)): −1.92 ± 14.92 mmHg
Change in weight ([2]; baseline to 8 month (Visit 6)): -0.88 ± 3.86 kg
Change in HbA1c ([2]; baseline to 8 month (Visit 6), only patients with diabetes at baseline): −0.21 ± 1.14%
Systolic BP, between group difference (95% CI) [2, 4]: −1.41 (−2.31 to −0.52), p = 0.002 mmHg
Weight, between group difference (95% CI) [2, 4]: −0.98 (−1.22 to −0.74), p < 0.001 kg
HbA1c, between group difference (95% CI) ([2]; baseline to 8 month, dapagliflozin vs placebo, only patients with diabetes at baseline): −0.25 (−0.36 to −0.14), p < 0.001%
Change in potassium ([2]; in vivo): 0.07 ± 0.53
Potassium, between group difference (95% CI) ([2]; in vivo): −0.02 (−0.05 to 0.01), p = 0.298
NT-proBNP, between-treatment difference ([2]; participants with diabetes, dapagliflozin vs placebo): −333 (−562 to −104) pg/ml
decrease in NT-proBNP ([2]; participants with diabetes): 257 ± 2502 pg/mL
NT-proBNP, between-treatment difference ([2]; patients without diabetes, dapagliflozin vs placebo): −278 (−485 to −71) pg/ml
decrease in NT-proBNP ([2]; patients without diabetes): 144 ± 2286 pg/mL
Mild hyperkalemia (>5.5 mmol/L), rate per 100 py (patients with HFrEF; All patients): 8.1 per 100 py
Moderate/Severe hyperkalemia (>6.0 mmol/L), rate per 100 py (patients with HFrEF; All patients): 1.0 per 100 py
Mild hyperkalemia (>5.5 mmol/L), HR (95% CI) (patients with HFrEF; All patients): 0.93 (0.78-1.11)
Moderate/Severe hyperkalemia (>6.0 mmol/L), HR (95% CI) (patients with HFrEF; All patients): 0.64 (0.42-0.99)
Mild hyperkalemia (>5.5 mmol/L), No. events/patients (patients with HFrEF; All patients): 243/2292
Moderate/Severe hyperkalemia (>6.0 mmol/L), No. events/patients (patients with HFrEF; All patients): 34/2358
Mild hyperkalemia (>5.5 mmol/L), rate per 100 py (patients with HFrEF; MRA treated at baseline): 8.6 per 100 py
Moderate/Severe hyperkalemia (>6.0 mmol/L), rate per 100 py (patients with HFrEF; MRA treated at baseline): 0.9 per 100 py
Mild hyperkalemia (>5.5 mmol/L), HR (95% CI) (patients with HFrEF; MRA treated at baseline): 0.86 (0.70-1.05)
Moderate/Severe hyperkalemia (>6.0 mmol/L), HR (95% CI) (patients with HFrEF; MRA treated at baseline): 0.50 (0.29-0.85)
Moderate/Severe hyperkalemia (>6.0 mmol/L), HR (95% CI) (patients with HFrEF; MRA treated at baseline, listed as dapagliflozin): 0.50 (0.29, 0.85)
Mild hyperkalemia (>5.5 mmol/L), No. events/patients (patients with HFrEF; MRA treated at baseline): 180/1632
Moderate/Severe hyperkalemia (>6.0 mmol/L), No. events/patients (patients with HFrEF; MRA treated at baseline): 21/1683
Mild hyperkalemia (>5.5 mmol/L), rate per 100 py (patients with HFrEF; No MRA at baseline): 7.1 per 100 py
Moderate/Severe hyperkalemia (>6.0 mmol/L), rate per 100 py (patients with HFrEF; No MRA at baseline): 1.4 per 100 py
Mild hyperkalemia (>5.5 mmol/L), HR (95% CI) (patients with HFrEF; No MRA at baseline): 1.20 (0.84-1.72)
Moderate/Severe hyperkalemia (>6.0 mmol/L), HR (95% CI) (patients with HFrEF; No MRA at baseline): 1.17 (0.52-2.62)
Mild hyperkalemia (>5.5 mmol/L), No. events/patients (patients with HFrEF; No MRA at baseline): 63/660
Moderate/Severe hyperkalemia (>6.0 mmol/L), No. events/patients (patients with HFrEF; No MRA at baseline): 13/675
Mild hyperkalemia, patients (%) (patients with HFrEF; patients treated with an MRA): 180 (11%) patients (%)
moderate/severe hyperkalemia, patients (%) (patients with HFrEF; patients treated with an MRA): 21 (1.2%) patients (%)
new-onset diabetes, HR ([3]; dapagliflozin vs placebo (Cox)): 0.68
reduction of new-onset diabetes ([3]; vs placebo): 32%
